± gives the standard deviation of the averaged measurements.
Experiments:
[1] = compound: T1, CCCCCCCCCCCCCCCC(=O)Nc1ccn([C@@H]2O[C@H](CO)[C@@H](O)[C@@H]2C#N)c(=O)n1 [SAPACITABINE]; assay: surviving fraction relative to DMSO-only wells; higher = less growth inhibition; conditions: exposure time: 5 days
Procedure, shortened: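 Five days of continuous inhibitor exposure, at 0.5, 1, 5, 10, 50, 100, 500 and 1000 nM, followed a 24-hour period after log-phase tumour cell lines were seeded at 250–500 cells per well in 384-well plates. Surviving fraction was derived from CellTiter-Glo luminescence relative to the median of DMSO-only wells. Plates were read after 10 minutes at room temperature, and lines screened three times were kept only if replicate Pearson r >0.7 and median Z' >0.3.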

[2] = compound: CC1(C)CC(=O)c2c(C(F)(F)F)nn(-c3ccc(C(N)=O)c(N[C@H]4CC[C@H](OC(=O)CN)CC4)c3)c2C1 [SNX-5422]; assay: area under dose-response curve of surviving fraction (unscaled, Aref=0) (surviving fraction x log10(nM)); higher = more resistant; conditions: exposure time: 5 days; dose range 0.5-1000 nM
Procedure, shortened: (§1)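 Three screens per tumour cell line were run in 384-well plates at eight inhibitor concentrations from 0.5 to 1000 nM over five days. Surviving fractions, from CellTiter-Glo luminescence normalised to DMSO-only wells, were fitted with 3-parameter logistic curves in the drc R package. The reported area under the curve is the unscaled activity area. It spans log10 dose, and Aref is 0.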

[3] = compound: CN(C)C/C=C/C(=O)Nc1cc2c(Nc3ccc(F)c(Cl)c3)ncnc2cc1O[C@H]1CCOC1 [AFATINIB]; assay: as above; conditions: exposure time: 5 days; dose range 0.5-1000 nM
Procedure, shortened: as §1

[4] = compound: CNC(=O)c1ccc(N2C(=S)N(c3ccc(C#N)c(C(F)(F)F)c3)C(=O)C2(C)C)cc1F [MDV3100]; assay: as above; conditions: exposure time: 5 days; dose range 0.5-1000 nM
Procedure, shortened: as §1

[5] = compound: Cn1cc(C2=Nc3cc(NC(=O)C(N)C4CCCCC4)cc4c3C2=CNNC4=O)cn1; assay: as above; conditions: exposure time: 5 days; dose range 0.5-1000 nM
Procedure, shortened: as §1

[6] = compound: T1, SAPACITABINE; assay: as above; conditions: exposure time: 5 days; dose range 0.5-1000 nM
Procedure, shortened: as §1

[7] = compound: C=CC(=O)Nc1cc2c(Nc3ccc(F)c(Cl)c3)ncnc2cc1OCCCN1CCOCC1 [CANERTINIB]; assay: as above; conditions: exposure time: 5 days; dose range 0.5-1000 nM
Procedure, shortened: as §1

[8] = compound: Nc1nc2[nH]cnc2c(=S)[nH]1 [TIOGUANINE]; assay: as above; conditions: exposure time: 5 days; dose range 0.5-1000 nM
Procedure, shortened: as §1

[9] = compound: CC[C@@H]1C(=O)N(C)c2cnc(Nc3ccc(C(=O)NC4CCN(C)CC4)cc3OC)nc2N1C1CCCC1 [BI-2536]; assay: as above; conditions: exposure time: 5 days; dose range 0.5-1000 nM
Procedure, shortened: as §1

Test System | surviving fraction ([1]; 0.5 nM) | surviving fraction ([1]; 1 nM) | surviving fraction ([1]; 5 nM) | surviving fraction ([1]; 10 nM) | surviving fraction ([1]; 50 nM) | surviving fraction ([1]; 100 nM) | surviving fraction ([1]; 500 nM) | surviving fraction ([1]; 1000 nM) | area under dose-response curve [2] | area under dose-response curve [3] | area under dose-response curve [4] | area under dose-response curve [5] | area under dose-response curve [6] | area under dose-response curve [7] | area under dose-response curve [8] | area under dose-response curve [9]
CHLA90 AUTONOMIC GANGLIA | 0.843 ± 0.099 | 0.692 ± 0.038 | 0.797 ± 0.052 | 0.235 ± 0.019 | 0.889 ± 0.092 | 0.755 ± 0.057 | 0.641 ± 0.042 | 0.212 ± 0.038 | 2.04 | 2.76 | 2.67 | 2.37 | 2.09 | 2.51 | 3.12 | 1.2
MFM223 BREAST | 0.839 ± 0.092 | 0.82 ± 0.11 | 0.83 ± 0.089 | 0.8 ± 0.045 | 0.933 ± 0.12 | 0.939 ± 0.026 | 0.903 ± 0.074 | 0.77 ± 0.1 | 2.02 | 3.2 | 3.56 | 2.38 | 2.85 | 2.88 | 3.53 | 0.566
